This is an account of results in PubChem BioAssay AID238 (DTP/NCI, 2004).

Where “and” joins values, the source holds several entries; their conditions need not be identical. Identical values can stand only once. Inconclusive results and toxic doses are left out.

The subject of the test is CAF1 mice, leiomyosarcoma No.2 ip, survival T/C%. Kind of test: NCI In Vivo Anticancer Drug Screen. Data for tumor model Leiomyosarcoma (No. 2) (intraperitoneal) in CAF1 mice. The conditions noted are these: endpoint: mean survival time, schedule: Q01DX010 (ip), higher = longer survival. The protocol: The antitumor activity of compounds was measured in mice bearing transplantable tumors. Survival or tumor size were measured and the results are expressed as the measurement made in the treated group (T) divided by the measurement made in the vehicle treated control group (C). The tumor model used in this assay is Leiomyosarcoma (No. 2) (intraperitoneal) in CAF1 mice

Setting [1] is: dose: 15.0 mg/kg/injection, vehicle: saline.
[2] abbreviates: dose: 30.0 mg/kg/injection, vehicle: saline.
The mark [3] stands for this setting: dose: 60.0 mg/kg/injection, vehicle: saline.
Where [4] appears, read: dose: 120.0 mg/kg/injection, vehicle: saline.
[5] abbreviates: dose: 31.3 mg/kg/injection, vehicle: saline.
The mark [6] stands for this setting: dose: 62.5 mg/kg/injection, vehicle: saline.
The mark [7] stands for this setting: dose: 125.0 mg/kg/injection, vehicle: saline.
[8] abbreviates: dose: 12.5 mg/kg/injection, vehicle: saline.
The mark [9] stands for this setting: dose: 25.0 mg/kg/injection, vehicle: saline.
[10] abbreviates: dose: 50.0 mg/kg/injection, vehicle: saline.
Setting [11] is: dose: 100.0 mg/kg/injection, vehicle: saline.
[12] abbreviates: dose: 6.0 mg/kg/injection, vehicle: saline.
The mark [13] stands for this setting: dose: 200.0 mg/kg/injection, vehicle: saline.
Setting [14] is: dose: 8.0 mg/kg/injection, vehicle: saline.
Setting [15] is: dose: 10.0 mg/kg/injection, vehicle: saline.
The mark [16] stands for this setting: dose: 20.0 mg/kg/injection, vehicle: saline.
The mark [17] stands for this setting: dose: 40.0 mg/kg/injection, vehicle: saline.
Where [18] appears, read: dose: 1.0 mg/kg/injection, vehicle: saline.
Where [19] appears, read: dose: 5.0 mg/kg/injection, vehicle: saline.

As to `N#CCSc1ncnc2nc[nH]c12`, the T/C runs as follows: under setting [1], 86 % of control and 113 % of control; under setting [2], 118 % of control and 120 % of control; under setting [3], 113 % of control; under setting [4], 118 % of control.
`COc1ccc2c(c1OC)C(=O)O[C@@H]2[C@H]1c2c(cc3c(c2OC)OCO3)CCN1C`: the T/C under setting [5] was 92 % of control.
Consider `CCn1cnc2c(=S)nc[nH]c21`, for which the T/C runs as follows: (dose: 15.6 mg/kg/injection, vehicle: saline) 100 % of control and 108 % of control; under setting [5], 96 % of control and 100 % of control; under setting [6], 100 % of control and 119 % of control; under setting [7], 112 % of control.
Take `CCN(CC)CCNc1ccc(C)c2sc3ccccc3c(=O)c12`: the T/C by setting is: under setting [8], 116 % of control; under setting [9], 100 % of control and 116 % of control; under setting [10], 103 % of control; under setting [11], 154 % of control.
Consider `O=c1cn[nH]c(=O)[nH]1`, for which the T/C runs as follows: under setting [6], 114 % of control; under setting [7], 90 % of control and 106 % of control; (dose: 250.0 mg/kg/injection, vehicle: saline) 92 % of control and 107 % of control; (dose: 500.0 mg/kg/injection, vehicle: saline) 96 % of control.
Take `N=C(N)c1ccc(Nc2ccc(C(=N)N)cc2)cc1`: the T/C was 108 % of control (dose: 3.0 mg/kg/injection, vehicle: saline); 104 % of control under setting [12]; 100 % of control (dose: 12.0 mg/kg/injection, vehicle: saline).
`CN(C)/N=N/c1nc[nH]c1C(N)=O`: the T/C is, setting by setting: under setting [9], 109 % of control; under setting [10], 109 % of control and 113 % of control; under setting [11], 118 % of control; under setting [13], 163 % of control; (dose: 400.0 mg/kg/injection, vehicle: saline) 86 % of control.
Regarding `O=C(Nc1ccc(C2=NCCN2)cc1)c1ccc(C(=O)Nc2ccc(C3=NCCN3)cc2)c([N+](=O)[O-])c1`, the T/C is 121 % of control under setting [12] and 113 % of control under setting [14].
`c1ccc(CNc2ncnc3[nH]ncc23)cc1`: the T/C runs as follows: under setting [14], 95 % of control and 103 % of control; (dose: 16.0 mg/kg/injection, vehicle: saline) 92 % of control and 100 % of control; (dose: 32.0 mg/kg/injection, vehicle: saline) 92 % of control and 100 % of control; (dose: 64.0 mg/kg/injection, vehicle: saline) 95 % of control and 96 % of control.
With `Clc1ncnc2nc[nH]c12`, the T/C is, setting by setting: (dose: 7.5 mg/kg/injection, vehicle: saline) 86 % of control and 107 % of control; under setting [1], 93 % of control and 103 % of control; under setting [2], 111 % of control and 116 % of control; under setting [3], 107 % of control.
On to `Cc1cc(N(CCCl)CCCl)ccc1N=Nc1ccccc1C(=O)O`, for which the T/C is, setting by setting: under setting [15], 150 % of control and 183 % of control; under setting [16], 175 % of control; under setting [17], 104 % of control and 225 % of control.
Consider `C#CCN(C)Cc1ccccc1`, for which the T/C under setting [10] is 102 % of control, the T/C under setting [11] is 88 % of control and the T/C under setting [13] was 91 % of control.
With `Nc1nc(=S)c2ncn(C3OC(CO)C(O)C3O)c2[nH]1` (configuration not stated), the T/C is, setting by setting: under setting [18], 258 % of control; (dose: 2.0 mg/kg/injection, vehicle: saline) 197 % of control and 204 % of control; (dose: 4.0 mg/kg/injection, vehicle: saline) 118 % of control; under setting [14], 90 % of control.
`CS(=O)(=O)OCC(O)C(O)C(O)C(O)COS(C)(=O)=O` (configuration not stated): the T/C is 104 % of control under setting [9]; 109 % of control and 113 % of control under setting [10]; 118 % of control under setting [11]; 118 % of control under setting [13].
As for `CS(=O)(=O)OCCN(CCOS(C)(=O)=O)c1ccc(N=O)cc1`, the T/C is 221 % of control (dose: 0.25 mg/kg/injection, vehicle: saline); 173 % of control (dose: 0.5 mg/kg/injection, vehicle: saline); 113 % of control under setting [18].
With `CCCNc1ncnc2[nH]ncc12`, the T/C by setting is: (dose: 6.25 mg/kg/injection, vehicle: saline) 114 % of control; under setting [8], 88 % of control and 90 % of control.
On to `Nc1nc2n[nH]nc2c(=O)[nH]1`, for which the T/C is 188 % of control and 225 % of control (dose: 25.0 mg/kg/injection, vehicle: alkali diluted with saline); 253 % of control under setting [9]; 180 % of control and 250 % of control (dose: 50.0 mg/kg/injection, vehicle: alkali diluted with saline); 186 % of control under setting [10]; 190 % of control and 246 % of control (dose: 100.0 mg/kg/injection, vehicle: alkali diluted with saline); 185 % of control (dose: 200.0 mg/kg/injection, vehicle: alkali diluted with saline).
For the compound `CN(C)c1ccc(Nc2c3ccccc3nc3ccccc23)cc1`, the T/C is 121 % of control (dose: 36.0 mg/kg/injection, vehicle: saline); 121 % of control (dose: 54.0 mg/kg/injection, vehicle: saline); 300 % of control (dose: 80.0 mg/kg/injection, vehicle: saline); 300 % of control under setting [4].
Take `CN(C)c1nc(N(C)C)nc(N(C)C)n1`: the T/C (dose: 18.8 mg/kg/injection, vehicle: saline) is 100 % of control and 108 % of control; the T/C (dose: 37.5 mg/kg/injection, vehicle: saline) is 89 % of control and 112 % of control; the T/C (dose: 75.0 mg/kg/injection, vehicle: saline) is 96 % of control and 104 % of control; the T/C (dose: 150.0 mg/kg/injection, vehicle: saline) is 110 % of control.
As to `N=C(N)SCc1c2ccccc2c(CSC(=N)N)c2ccccc12`, the T/C runs as follows: (dose: 2.5 mg/kg/injection, vehicle: saline) 172 % of control; under setting [19], 186 % of control and 209 % of control; under setting [15], 177 % of control and 204 % of control; under setting [16], 109 % of control and 209 % of control; under setting [17], 104 % of control.
As for `CN(C)c1ccc(/C=C/c2ccnc3ccccc23)cc1`, the T/C under setting [19] is 96 % of control and 112 % of control; the T/C under setting [15] was 112 % of control; the T/C under setting [16] was 112 % of control; the T/C under setting [17] was 100 % of control.
